# Measured values published in US12378195B2, “Aminated psilocybin derivatives and methods of using” (Enveric Biosciences Canada Inc., priority 2021, dated 2025).
# Experiments:
# 5-HT2A receptor = target: T1, 5-HT2A receptor (Homo sapiens, UniProt P28223); test: [3H]ketanserin competition binding assay (Scintillation Proximity Assay); conditions: fixed (1 nM) [3H]ketanserin; membranes containing 5-HT2A; FIG. 11E
# T1 construct: purchased PerkinElmer ES-313-M400UA
# Excerpt: Evaluation of drug binding is an essential step to characterization of all drug-target interactions (Fang 2012, Exp Opin Drug Discov 7:969). The binding affinity of a drug to a target is traditionally viewed as an acceptable surrogate of its in vivo efficacy (Núnez et al., 2012, Drug Disc Today 17: 10). Competition assays, also called displacement or modulation binding assays, are a common approach to measure activity of a ligand at a target receptor (Flanagan 2016, Methods Cell Biol 132: 191). In these assays, standard radioligands acting either as agonists or antagonists are ascribed to specific receptors. […] After incubation, the samples were read on a MicroBeta 2 Microplate Counter (Perkin Elmer). […] Equilibrium binding constants for ketanserin (Kd) were determined from saturation binding curves using the ‘one-site saturation binding analysis’ method of GraphPad PRISM software (Version 9.2.0). […] Ki values were calculated from the competition displacement data using the competitive binding analysis from GraphPad PRISM software. […] Specific binding in counts per minute (cpm) was calculated by subtracting non-specific binding from total binding. Specific binding (pmol/mg) was calculated from pmol of [^3H]ketanserin bound per mg of protein in the assay. The Kd was calculated by fitting the data with the one-site binding model of PRISM software (version 9.2.0).
# 5-HT1A receptor = target: T2, 5-HT1A receptor (Homo sapiens, UniProt P08908); test: cAMP-Glo luminescence assay in +5-HT1A cells (CHO-K1/5-HT1A/Gα15) with forskolin; format: cell-based; conditions: +5HT1A cell cultures, fixed (4 μM) forskolin, n=3; for % cAMP levels with decreasing ligand dosage, 5-HT1A activity: FIGS. 11L, 11M; for luminescence (cAMP) trend with decreasing ligand dosage, 5-HT1A modulation: FIGS. 11J, 11K
# T2 construct: host or cells: CHO-K1 (stably expressing 5-HT1A and Gα15)
# T2 sequence (P08908 1-422): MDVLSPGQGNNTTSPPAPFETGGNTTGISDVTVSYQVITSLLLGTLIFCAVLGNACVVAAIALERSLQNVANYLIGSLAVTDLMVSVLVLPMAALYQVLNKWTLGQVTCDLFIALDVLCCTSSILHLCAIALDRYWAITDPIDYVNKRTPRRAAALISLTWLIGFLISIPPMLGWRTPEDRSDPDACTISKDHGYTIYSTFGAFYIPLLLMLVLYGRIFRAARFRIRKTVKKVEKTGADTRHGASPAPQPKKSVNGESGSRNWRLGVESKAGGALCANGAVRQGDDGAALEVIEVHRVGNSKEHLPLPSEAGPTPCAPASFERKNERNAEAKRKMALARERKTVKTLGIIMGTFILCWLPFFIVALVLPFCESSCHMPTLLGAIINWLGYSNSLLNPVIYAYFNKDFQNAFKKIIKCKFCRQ
# Excerpt: CHO-K1/Gα15 (GenScript, M00257) (−5-HT1A) and CHO-K1/5-HT1A/Gα15 (GenScript, M00330) (+5-HT1A) cells lines were used. Briefly, CHO-K1/Gα15 is a control cell line that constitutively expresses Gα15 which is a promiscuous Gq protein. This control cell line lacks any transgene encoding 5-HT1A receptors, but still responds to forskolin; thus, cAMP response to forskolin should be the same regardless of whether or not 5-HT1A agonists are present. Conversely, CHO-K1/5-HT1A/Gα15 cells stably express 5-HT1A receptor in the CHO-K1 host background. […] In +5-HT1A cells, Gα15 may be recruited in place of Gαi/o, which could theoretically dampen cAMP response (Rojas and Fiedler 2016, Front Cell Neurosci 10: 272). […] In contrast, tryptophan is not known to activate, or modulate in any way, 5-HT1A receptors, and was thus used as a negative control. Cells were maintained in complete growth media as recommended by supplier (GenScript) which is constituted as follows: Ham's F12 Nutrient mix (HAM's F12, GIBCO #11765-047) with 10% fetal bovine serum (FBS) (Thermo Scientific #12483020), 200 μg/ml zeocin (Thermo Scientific #R25005) and/or 100 μg/ml hygromycin (Thermo Scientific #10687010). The cells were cultured in a humidified incubator with 37° C. and 5% CO2. Cells maintenance was carried out as recommended by the cell supplier. Briefly, vials with cells were removed from the liquid nitrogen and thawed quickly in 37° C. water bath. Just before the cells were completely thawed the vial's outside was decontaminated by 70% ethanol spray. The cell suspension was then retrieved from the vial and added to warm (37° C.) complete growth media, and centrifuged at 1,000 rpm for 5 minutes. The supernatant was discarded, and the cell pellet was then resuspended in another 10 ml of complete growth media, and added to the 10 cm cell culture dish (Greiner Bio-One #664160). The media was changed every third day until the cells were about 90% confluent. The ˜90% confluent cells were then split 10:1 for maintenance or used for experiment.
# (§1) As 5-HT1A activation inhibits cAMP formation, the ability of test molecules to modulate 5-HT1A response was measured via changes in the levels of cAMP produced due to application of 4 μM forskolin. The change in intracellular cAMP levels due to the treatment of novel molecules was measured using cAMP-Glo Assay kit (Promega #V1501). […] Reduced ATP caused reduced conversion of luciferin to oxyluciferin, conferring diminished luminescence as the result of 5-HT1A activation. Conversely, enhanced luminescence was expected in cases where 5-HT1A receptor modulation—imparted by a test molecule—caused downstream increases in ATP, thus imparting enhanced conversion of luciferin to oxyluciferin.
# [1] = tested on: CHO-K1/Gα15 (−5-HT1A) cells; test: cAMP-Glo assay in control −5-HT1A cells (CHO-K1/Gα15) with forskolin; format: cell-based; conditions: −5HT1A cell cultures; fixed (4 μM) forskolin; n=3; FIGS. 11L, 11M
# Excerpt: CHO-K1/Gα15 (GenScript, M00257) (−5-HT1A) and CHO-K1/5-HT1A/Gα15 (GenScript, M00330) (+5-HT1A) cells lines were used. Briefly, CHO-K1/Gα15 is a control cell line that constitutively expresses Gα15 which is a promiscuous Gq protein. This control cell line lacks any transgene encoding 5-HT1A receptors, but still responds to forskolin; thus, cAMP response to forskolin should be the same regardless of whether or not 5-HT1A agonists are present. Conversely, CHO-K1/5-HT1A/Gα15 cells stably express 5-HT1A receptor in the CHO-K1 host background. […] In +5-HT1A cells, Gα15 may be recruited in place of Gαi/o, which could theoretically dampen cAMP response (Rojas and Fiedler 2016, Front Cell Neurosci 10: 272). […]
# as §1
# T1 sequence (P28223 whole entry): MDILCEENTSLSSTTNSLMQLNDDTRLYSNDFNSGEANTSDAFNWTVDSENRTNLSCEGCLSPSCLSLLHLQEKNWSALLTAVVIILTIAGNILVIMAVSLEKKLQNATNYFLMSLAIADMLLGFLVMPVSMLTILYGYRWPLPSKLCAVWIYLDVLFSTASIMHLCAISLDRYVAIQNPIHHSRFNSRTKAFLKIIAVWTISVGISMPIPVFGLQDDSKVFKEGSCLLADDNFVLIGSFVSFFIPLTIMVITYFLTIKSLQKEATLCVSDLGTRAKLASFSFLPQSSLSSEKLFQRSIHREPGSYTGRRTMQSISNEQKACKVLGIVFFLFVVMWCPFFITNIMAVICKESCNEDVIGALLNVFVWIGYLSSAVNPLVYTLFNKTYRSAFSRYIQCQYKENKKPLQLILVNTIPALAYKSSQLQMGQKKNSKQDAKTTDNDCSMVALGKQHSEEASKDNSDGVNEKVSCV
compound,measurement,setting,value
CN(C)CCc1c[nH]c2cccc(O)c12 [psilocin],competition binding curve at the 5-HT2A receptor,5-HT2A receptor,binding
COc1c(N)ccc2[nH]cc(CCN)c12 [compound (IX)],"% cAMP levels with decreasing ligand dosage, 5-HT1A activity",5-HT1A receptor,5-HT1A binding activity
same,trend of increasing % cAMP levels with decreasing ligand dosage,[1],not observed
NCCc1c[nH]c2ccc(O)cc12 [serotonin],"% cAMP levels with decreasing ligand dosage, 5-HT1A activity",5-HT1A receptor,5-HT1A binding activity
same,trend of increasing % cAMP levels with decreasing ligand dosage,[1],not observed
CN(C)CCc1c[nH]c2ccccc12 [DMT],"luminescence (cAMP) trend with decreasing ligand dosage, 5-HT1A modulation",5-HT1A receptor,5-HT1A activity
N[C@@H](Cc1c[nH]c2ccccc12)C(=O)O [tryptophan],competition binding curve at the 5-HT2A receptor,5-HT2A receptor,no binding
same,"luminescence (cAMP) trend with decreasing ligand dosage, 5-HT1A modulation",5-HT1A receptor,lack of 5-HT1A modulation
